Earlier results as cited in US20140248345A1 (Merck Sharp & Dohme Corp., priority 2011, published 2014).

System: human Type 2 diabetics
Conditions: oral administration

Row | Structure (SMILES) | HbA1c levels | fasting glucose and postprandial glucose excursion
1 | N[C@@H](CC(=O)N1CCn2c(nnc2C(F)(F)F)C1)Cc1cc(F)c(F)cc1F [sitagliptin, (2R)-4-oxo-4-[3-(trifluoromethyl)-5,6-dihydro[1,2,4]triazolo[4,3-a]pyrazin-7(8H)-yl]-1-(2,4,5-trifluorophenyl)butan-2-amine] | significantly reduced | reduce fasting glucose and postprandial glucose excursion
2 | N#C[C@@H]1CCCN1C(=O)CNC12CC3CC(CC(O)(C3)C1)C2 [vildagliptin, (S)-1-[(3-hydroxy-1-adamantyl)amino]acetyl-2-cyano-pyrrolidine] | significantly reduced | reduce fasting glucose and postprandial glucose excursion
